Measurements reported in patent publication US8329725B2, “Annelated pyrrolidin sulfonamides with oxadiazolone headgroup, processes for their preparation and their use as pharmaceuticals” (Sanofi, priority 2008, dated 2012).
pEC50: −log10 of the molar value.

Experiments:
human PPARdelta = molecular target: T1, human PPARdelta (Homo sapiens, UniProt Q03181); test: Cellular PPARdelta assay (luciferase reporter, stably transfected HEK cell line); format: cell-based; conditions: PPARdelta reporter cell line (HEK, GR-GAL4-humanPPARdelta-LBD)
T1 construct: human PPARdelta receptor (amino acids S139-Y441); expressed in transfected cells
T1 sequence (Q03181 139-441): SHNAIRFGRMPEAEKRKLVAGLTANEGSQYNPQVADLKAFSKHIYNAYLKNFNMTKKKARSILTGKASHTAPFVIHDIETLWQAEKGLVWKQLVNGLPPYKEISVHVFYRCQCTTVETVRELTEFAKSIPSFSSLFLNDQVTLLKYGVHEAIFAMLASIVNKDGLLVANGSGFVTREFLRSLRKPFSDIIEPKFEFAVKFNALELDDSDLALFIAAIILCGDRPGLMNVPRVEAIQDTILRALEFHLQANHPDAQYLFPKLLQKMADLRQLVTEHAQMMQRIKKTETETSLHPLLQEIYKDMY
Protocol: Determination of EC50 Values of PPAR Agonists in the Cellular PPARdelta Assay
The potency of substances which bind to human PPARdelta and activate it in an agonistic manner is analyzed using a stably transfected HEK cell line (HEK=human embryo kidney) which is referred to here as PPARdelta reporter cell line. In analogy to the assay described for PPARalpha, the PPARdelta reporter cell line also contains two genetic elements, a luciferase reporter element (pdeltaM-GAL4-Luc-Zeo) and a PPARdelta fusion protein (GR-GAL4-humanPPARdelta-LBD) which mediates expression of the luciferase reporter element depending on a PPARdelta ligand. The stably and constitutively expressed fusion protein GR-GAL4-humanPPARdelta-LBD binds in the cell nucleus of the PPARdelta reporter cell line via the GAL4 protein portion to the GAL4 DNA binding motifs 5′-upstream of the luciferase reporter element which is stably integrated in the genome of the cell line. There is only little expression of the luciferase reporter gene in the absence of a PPARdelta ligand if fatty acid-depleted fetal calf serum (cs-FCS) is used in the assay. PPARdelta ligands bind and activate the PPARdelta fusion protein and thereby stimulate expression of the luciferase reporter gene. The luciferase which is formed can be detected by means of chemiluminescence via an appropriate substrate.
The production of the stable PPARdelta reporter cell line is based on a stable HEK-cell clone which was stably transfected with a luciferase reporter element. This step was already described above in the section “construction of the PPARalpha reporter cell line”. In a second step, the PPARdelta fusion protein (GR-GAL4-humanPPARdelta-LBD was stably introduced into this cell clone. For this purpose, the cDNA coding for the N-terminal 76 amino acids of the glucocorticoid receptor (Accession #P04150) was linked to the cDNA section coding for amino acids 1-147 of the yeast transcription factor GAL4 (Accession #P04386). The cDNA of the ligand-binding domain of the human PPARdelta receptor (amino acids S139-Y441; Accession #L07592) was cloned in at the 3′-end of this GR-GAL4 construct. The fusion construct prepared in this way (GR-GAL4-humanPPARdelta-LBD) was recloned into the plasmid pcDNA3 (Invitrogen) in order to enable constitutive expression by the cytomegalovirus promoter. This plasmid was linearized with a restriction endonuclease and stably transfected into the previously described cell clone containing the luciferase reporter element. […]
The activity of PPARdelta agonists is determined in a 3-day assay in exact analogy to the procedure already described for the PPARalpha reporter cell line except that the PPARdelta reporter cell line and a specific PPARdelta agonist was used as a standard to control test efficacy.

human PPARalpha = molecular target: T2, human PPARalpha (Homo sapiens, UniProt Q07869); test: Cellular PPARalpha assay (luciferase reporter, stably transfected HEK cell line); format: cell-based; conditions: PPARalpha reporter cell line (HEK, GR-GAL4-humanPPARalpha-LBD)
T2 construct: human PPARalpha receptor (amino acids S167-Y468); expressed in transfected cells
T2 sequence (Q07869 167-468): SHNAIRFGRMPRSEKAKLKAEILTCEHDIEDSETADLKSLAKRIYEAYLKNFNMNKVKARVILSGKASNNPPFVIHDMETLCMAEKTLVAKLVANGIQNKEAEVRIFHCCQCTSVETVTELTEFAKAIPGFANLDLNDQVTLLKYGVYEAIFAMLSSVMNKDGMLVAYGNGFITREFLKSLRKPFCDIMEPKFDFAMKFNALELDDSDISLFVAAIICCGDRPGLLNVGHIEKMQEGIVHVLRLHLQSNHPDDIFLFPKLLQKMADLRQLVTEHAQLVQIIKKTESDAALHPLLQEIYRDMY
Protocol: Determination of EC50 Values of PPAR Agonists in the Cellular PPARalpha Assay
The potency of substances which bind to human PPARalpha and activate it in an agonistic manner is analyzed using a stably transfected HEK cell line (HEK=human embryo kidney) which is referred to here as PPARalpha reporter cell line. It contains two genetic elements, a luciferase reporter element (pdeltaM-GAL4-Luc-Zeo) and a PPARalpha fusion protein (GR-GAL4-humanPPARalpha-LBD) which mediates expression of the luciferase reporter element depending on a PPARalpha ligand. The stably and constitutively expressed fusion protein GR-GAL4-humanPPARalpha-LBD binds in the cell nucleus of the PPARalpha reporter cell line via the GAL4 protein portion to the GAL4 DNA binding motifs 5′-upstream of the luciferase reporter element which is stably integrated in the genome of the cell line. There is only weak expression of the luciferase reporter gene in the absence of a PPARalpha ligand if fatty acid-depleted fetal calf serum (cs-FCS) is used in the assay. PPARalpha ligands bind and activate the PPARalpha fusion protein and thereby stimulate the expression of the luciferase reporter gene. The luciferase which is formed can be detected by means of chemiluminescence via an appropriate substrate. […]
The activity of PPARalpha agonists is determined in a 3-day assay which is described below: […]

pEC50 (human PPARdelta)	pEC50 (human PPARalpha)	Compound
5.89	–	COc1ccc(-c2ccc3c(c2)CCN3S(=O)(=O)c2ccc(-c3noc(=O)[nH]3)cc2)nc1 [Example 8, 3-{4-[5-(5-Methoxy-pyridin-2-yl)-2,3-dihydro-indole-1-sulfonyl]-phenyl}-4H-[1,2,4]oxadiazol-5-one]
5.45	–	COc1nc(C)ccc1-c1ccc2c(c1)CCN2S(=O)(=O)c1ccc(-c2noc(=O)[nH]2)cc1 [Example 5, 3-{4-[5-(2-Methoxy-6-methyl-pyridin-3-yl)-2,3-dihydro-indole-1-sulfonyl]-phenyl}-4H-[1,2,4]oxadiazol-5-one]
7.47	5.72	O=c1[nH]c(-c2ccc(S(=O)(=O)N3CCc4cc(-c5ccc(C(F)(F)F)cc5)cnc43)cc2Cl)no1 [Example 14, 3-{2-Chloro-4-[5-(4-trifluoromethyl-phenyl)-2,3-dihydro-pyrrolo[2,3-b]pyridine-1-sulfonyl]-phenyl}-4H-[1,2,4]oxadiazol-5-one]
8.60	6.10	CC1(C)CN(S(=O)(=O)c2ccc(-c3noc(=O)[nH]3)c(Cl)c2)c2ccc(-c3ccc(C(F)(F)F)cc3)nc21 [Example 16, 3-{2-Chloro-4-[3,3-dimethyl-5-(4-trifluoromethyl-phenyl)-2,3-dihydro-pyrrolo[3,2-b]pyridine-1-sulfonyl]-phenyl}-4H-[1,2,4]oxadiazol-5-one]
